In patent US12440706B2, “Conjugated chemical inducers of degradation and methods of use” (Genentech, Inc., priority 2018, dated 2025):

Each compound was assayed against T1, ERα (Homo sapiens, UniProt P03372) (assay: Degradation of ERα by Ab-CIDEs (Example 3, FIGS. 1-3, Tables 2-4)). Details: ERα degradation by Ab-CIDE.
T1 construct: ERα degradation percent activity in MCF7 neo/HER2 cells
T1 sequence (P03372 1-595): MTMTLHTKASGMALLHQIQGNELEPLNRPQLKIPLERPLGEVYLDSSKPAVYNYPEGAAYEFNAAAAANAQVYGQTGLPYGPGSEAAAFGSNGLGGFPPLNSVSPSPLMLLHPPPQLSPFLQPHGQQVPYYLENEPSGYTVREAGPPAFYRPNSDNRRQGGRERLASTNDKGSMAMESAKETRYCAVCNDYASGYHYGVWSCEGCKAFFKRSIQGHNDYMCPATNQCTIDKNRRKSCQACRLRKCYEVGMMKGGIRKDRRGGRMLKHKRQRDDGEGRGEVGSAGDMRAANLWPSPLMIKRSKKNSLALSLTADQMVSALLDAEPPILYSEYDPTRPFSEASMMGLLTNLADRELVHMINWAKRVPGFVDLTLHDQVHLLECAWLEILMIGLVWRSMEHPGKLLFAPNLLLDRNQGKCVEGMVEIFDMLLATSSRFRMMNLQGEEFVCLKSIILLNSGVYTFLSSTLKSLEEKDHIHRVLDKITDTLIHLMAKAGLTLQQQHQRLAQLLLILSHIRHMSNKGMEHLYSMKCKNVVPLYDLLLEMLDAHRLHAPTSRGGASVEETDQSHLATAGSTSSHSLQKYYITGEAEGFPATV
Type: cell-based

Structure (SMILES) | DC50 | Sinf
CC/C(=C(\c1ccc(O)cc1)c1ccc(OCCN(C)C(=O)CCOCCOCCC(=O)N[C@H](C(=O)N2C[C@H](OC(=O)OCC(C)(C)SS(C)(=O)=O)C[C@H]2C(=O)NCc2ccc(-c3scnc3C)cc2)C(C)(C)C)cc1)c1ccccc1 [Thio Hu Anti- Her2 7C2 high DAR [LC:K149C HC:L174C HC:Y373C]] | 0.0279 µM | −93%
CC/C(=C(\c1ccc(O)cc1)c1ccc(OCCN(C)C(=O)CCOCCOCCC(=O)N[C@H](C(=O)N2C[C@H](OC(=O)OCC(C)(C)SS(C)(=O)=O)C[C@H]2C(=O)NCc2ccc(-c3scnc3C)cc2)C(C)(C)C)cc1)c1ccccc1 [Thio Hu Anti- CD22 10F4v3 high DAR [LC:K149C HC:L174C Y373C]] | 0.304 µM | −92%
CC/C(=C(/c1ccc(OCCN(C)C(=O)CCOCCOCCC(=O)N[C@H](C(=O)N2C[C@H](OC(=O)OCC(C)(C)SS(C)(=O)=O)C[C@H]2C(=O)NCc2ccc(-c3scnc3C)cc2)C(C)(C)C)cc1)c1ccc(OP(=O)(O)O)cc1)c1ccccc1 [Thio Hu Anti- CD22 10F4v3 high DAR [LC:K149C HC:L174C HC:Y37] | 1.27 µM | −92%
CC/C(=C(/c1ccc(OCCN(C)C(=O)CCOCCOCCC(=O)N[C@H](C(=O)N2C[C@H](OC(=O)OCC(C)(C)SS(C)(=O)=O)C[C@H]2C(=O)NCc2ccc(-c3scnc3C)cc2)C(C)(C)C)cc1)c1ccc(OP(=O)(O)O)cc1)c1ccccc1 [Thio Hu Anti- Her2 7C2 high DAR [LC:K149C HC:L174C HC:Y373C]] | 0.0474 µM | −94%

These compounds were tested on EOL-1 AML xenografts (assay: EOL-1 AML subcutaneous xenograft efficacy). Details: single IV dose 0.4 mg/kg.
Type: in vivo, mice
Experimental: Two human AML cell lines, EOL-1 (DSMZ; Braunschweig, Germany) and HL-60 (ATCC, Manassas, VA) were used to establish subcutaneous xenograft models for efficacy evaluation of the degrader-antibody conjugates. Tumor cells (5 million cells suspended in 0.1 mL of Hanks' Balanced Salt Solution supplemented with Matrigel) were inoculated to the flanks of female CB-17 Fox Chase SCID mice (Charles River Lab, Hollister, CA). When mean tumor size reached the desired volume (200-300 mm^3), animals were randomized into groups of n=5, each with similar tumor volume distributions, and each animal received an intraperitoneal dose of a mouse IgG2a anti-ragweed antibody in excess amount (30 mg/kg; to block Fcγ receptors frequently expressed on the surface of AML cells). Four hours later, vehicle or degrader-antibody conjugates were administered to the animals via single intravenous (IV) bolus injections through the tail vein. Tumors were measured in two dimensions (length and width) using calipers and the tumor volume was calculated using the formula: Tumor size (mm^3)=0.5×(length×width×width). The results were plotted as mean tumor volume+/−SEM of each group over time. Treatment groups were not blinded during tumor measurement.

Structure (SMILES) | efficacy in the EOL-1 model
Cc1ncsc1-c1ccc(CNC(=O)[C@@H]2C[C@@H](O)CN2C(=O)[C@@H](NC(=O)CCCCCCCCCCNC(=O)c2cc3c(cc2CS(C)(=O)=O)-c2cn(C)c(=O)c4[nH]cc(c24)CN3c2ncc(F)cc2F)C(C)(C)C)cc1 [unconjugated CIDE] | no efficacy
